According to patent US11813277B2, “Methods and agents for modulating inflammation” (The Regents of the University of California, priority 2018, dated 2023):
“Also recorded” adds a separate entry of the source.

Key:
HepG2 cells = assay: Palmitate-driven respiration in intact HepG2 cells (Seahorse); assay type: cell-based
Procedure: (§1) All respirometry studies were conducted in either a Seahorse XF96 or XFe96 Analyzer. All experiments were conducted at 37° C., and at pH 7.4 (intact cells) or 7.2 (permeabilized cells and isolated mitochondria). Calculation of respiratory parameters was made according to standard protocols (Divakaruni, A. S., Paradyse, A., Ferrick, D. A., Murphy, A. N., and Jastroch, M. (2014a) Analysis and interpretation of microplate-based oxygen consumption and pH data. Meth. Enzym 547, 509-54), and all rates were corrected for non-mitochondrial respiration/background signal by subtracting the oxygen consumption rate insensitive to rotenone plus antimycin A.
Palmitate oxidation in intact cells (FIG. 1A, FIG. 1B) was assessed by measuring palmitate-driven respiration that was sensitive to low concentrations of etomoxir (Rogers, G. W., Nadanaciva, S., Swiss, R., Divakaruni, A. S., and Will, Y. (2014) Assessment of fatty acid beta oxidation in cells and isolated mitochondria. Curr. Protoc. Toxicol. 60, 25.3, 1-19). […] Respiration was measured under basal conditions as well as after injection of 2 μM oligomycin, two sequential additions of 1 μM FCCP, followed by 0.2 μM rotenone with 1 μM antimycin A. Etomoxir was added to the assay medium 30 min. prior to measurements of basal respiratory rates.

[1] = test system: A549, HCT116, cortical neurons, cortical astrocytes, BMDM, NRVM; assay: Respiration in intact cells offered glucose, glutamine, pyruvate (six cell types); assay type: cell-based
Procedure: as §1
When diagnosing an off-target effect of etomoxir (FIG. 5A, FIG. 5B, FIG. 5C), all cells apart from primary neurons were offered 8 mM glucose, 2 mM glutamine, and 2 mM pyruvate in unbuffered DMEM supplemented with 5 mM HEPES. […] Respiration in all intact cells was measured in the basal state as well as in response to 2 μM oligomycin, FCCP (either 400 nM, 800 nM or 1.2 μM as appropriate and previously optimized), and 0.2 μM rotenone with 1 μM antimycin A. Etomoxir (at concentrations indicated in the text), UK5099 (3 μM), or BPTES (3 μM) were added to the assay medium 30 min prior to measurements.

M(IL-4) polarization = conditions: cited from earlier work
CPT-1 = target: T1, CPT-1 (Homo sapiens, UniProt P50416); assay: Palmitoyl CoA-driven respiration in permeabilized A549 cells; assay type: cell-based; set-up: endogenous in cells; host or cells: A549 (A6)
T1 sequence (P50416 1-773): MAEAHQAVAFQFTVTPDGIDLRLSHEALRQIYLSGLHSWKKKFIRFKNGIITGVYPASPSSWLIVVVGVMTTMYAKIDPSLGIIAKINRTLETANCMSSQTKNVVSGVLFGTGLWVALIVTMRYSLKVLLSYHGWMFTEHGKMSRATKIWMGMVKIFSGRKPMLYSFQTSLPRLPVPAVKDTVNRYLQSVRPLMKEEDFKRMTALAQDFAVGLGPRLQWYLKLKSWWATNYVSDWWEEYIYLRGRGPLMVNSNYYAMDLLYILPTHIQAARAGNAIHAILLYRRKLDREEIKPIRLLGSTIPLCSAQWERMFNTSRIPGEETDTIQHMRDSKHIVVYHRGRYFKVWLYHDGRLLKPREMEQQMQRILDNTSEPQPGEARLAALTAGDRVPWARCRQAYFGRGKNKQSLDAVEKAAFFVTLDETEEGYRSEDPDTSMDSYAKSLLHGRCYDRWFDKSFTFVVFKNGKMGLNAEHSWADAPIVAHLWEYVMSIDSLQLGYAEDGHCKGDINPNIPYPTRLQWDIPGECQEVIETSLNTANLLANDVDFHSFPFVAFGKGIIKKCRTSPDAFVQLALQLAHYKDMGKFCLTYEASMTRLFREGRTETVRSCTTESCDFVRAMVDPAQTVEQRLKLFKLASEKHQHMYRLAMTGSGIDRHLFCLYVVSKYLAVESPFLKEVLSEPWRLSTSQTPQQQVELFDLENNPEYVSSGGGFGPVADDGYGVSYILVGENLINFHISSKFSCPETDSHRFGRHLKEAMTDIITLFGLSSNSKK

CCOC(=O)[C@@]1(CCCCCCOc2ccc(Cl)cc2)CO1 [etomoxir]
FCCP-stimulated respiration (HepG2 cells; 1 μM etomoxir): largely sensitive | half-maximal inhibitory concentration (EC50) for uncoupler-stimulated respiration (HepG2 cells; intact HepG2, albumin-buffered palmitate): sub-micromolar | maximal respiratory rate ([1]; 3 μM etomoxir, no fatty acids or carnitine): did not inhibit respiration | ATP-linked vs uncoupler-stimulated respiration ([1]; increasing, high concentrations of etomoxir): disproportionately inhibited ATP-linked respiration relative to uncoupler-stimulated respiration | blocking M(IL-4) polarization in Cpt2-/- BMDMs vs WT (M(IL-4) polarization; 200 μM etomoxir): equally effective | IL-4-associated markers / IL-4 response (M(IL-4) polarization; etomoxir 10 μM to 100 μM): unaffected; also recorded: fail to affect | EC50, FCCP-stimulated palmitoyl CoA-driven respiration (CPT-1): nanomolar | concentration of saturable effect (CPT-1): less than 3 μM
